# According to patent publication US10934310B2, “Inhibitors of Bruton's tyrosine kinase and method of their use” (JANSSEN PHARMACEUTICA NV, priority 2015, dated 2021):
# Target: unphosphorylated-BTK kinase domain (UP-BTK), GST-tagged human BTK (389-659aa) (Homo sapiens (Human), UniProt Q06187)
# Experiment: BTK Kinase Lanthascreen Binding Assay
# Conditions: compound, 50 nM Tracer 236, 2 nM anti-GST antibody, 60 minutes; pIC50 = negative log of the IC50 in molar
# Procedure: BTK Kinase Lanthascreen Binding Assay:
# A BTK kinase lanthascreen binding assay monitors compound binding to unphosphorylated-BTK kinase domain (UP-BTK), by competing with a fluorescent labeled tracer. […] Data were analyzed using Xlfit™ version 5.3 from ID Business Solutions (Guildford), Microsoft Excel add-in. pIC50 refers to the negative log of the IC50 in molar.
# unphosphorylated-BTK kinase domain (UP-BTK), GST-tagged human BTK (389-659aa), sequence (Q06187 389-659): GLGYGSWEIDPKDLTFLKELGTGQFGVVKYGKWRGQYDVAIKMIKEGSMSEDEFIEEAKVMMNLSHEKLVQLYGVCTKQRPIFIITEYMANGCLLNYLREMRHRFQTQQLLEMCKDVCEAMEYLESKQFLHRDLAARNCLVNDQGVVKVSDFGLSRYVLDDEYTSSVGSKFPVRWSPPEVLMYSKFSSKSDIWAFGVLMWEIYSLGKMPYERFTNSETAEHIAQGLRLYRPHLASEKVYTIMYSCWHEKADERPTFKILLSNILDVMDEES
row,BTK_I_binding pIC50,Compound
1,6.61,"Cc1cc(Oc2ccccc2)ccc1N1C(=O)Nc2c(C(=O)N[C@H]3CC[C@@H](NC(=O)/C=C/CN(C)C)CC3)sc3nccc1c23 [Example 77, N-((1S,4S)-4-((E)-4-(Dimethylamino)but-2-enamido)cyclohexyl)-5-(2-methyl-4-phenoxyphenyl)-4-oxo-4,5-dihydro-3H-1-thia-3,5,8-triazaacenaphthylene-2-carboxamide]"
2,6.55,"CNC/C=C/C(=O)N[C@H]1CC[C@@H](NC(=O)c2sc3nccc4c3c2NC(=O)N4c2ccc(Oc3ccccc3)cc2C)CC1 [Example 78, 5-(2-Methyl-4-phenoxyphenyl)-N-((1S,4S)-4-((E)-4-(methylamino)but-2-enamido)cyclohexyl)-4-oxo-4,5-dihydro-3H-1-thia-3,5,8-triazaacenaphthylene-2-carboxamide]"
3,6.47,"Cc1cc(Oc2ccccc2)ccc1N1C(=O)Nc2c(C(=O)N[C@H]3CC[C@@H](NC(=O)/C=C/CN)CC3)sc3nccc1c23 [Example 79, N-((1S,4S)-4-((E)-4-Aminobut-2-enamido)cyclohexyl)-5-(2-methyl-4-phenoxyphenyl)-4-oxo-4,5-dihydro-3H-1-thia-3,5,8-triazaacenaphthylene-2-carboxamide]"
4,7.03,"Cc1cc(Oc2ccccc2)ccc1N1C(=O)Nc2c(C(=O)NC3CCCC3)sc3nccc1c23 [Example 81, N-Cyclopentyl-5-(*S)-(2-methyl-4-phenoxyphenyl)-4-oxo-4,5-dihydro-3H-1-thia-3,5,8-triazaacenaphthylene-2-carboxamide]"
5,5.35,"Cc1cc(Oc2ccccc2)ccc1N1C(=O)Nc2c(C(=O)NC3CCCC3)sc3nccc1c23 [Example 82, N-Cyclopentyl-5-(*R)-(2-methyl-4-phenoxyphenyl)-4-oxo-4,5-dihydro-3H-1-thia-3,5,8-triazaacenaphthylene-2-carboxamide]"
6,7.31,"N[C@@H]1CCC[C@H]1NC(=O)c1sc2nccc3c2c1NC(=O)N3c1ccc(Oc2ccccc2)cc1 [Example 91, N-((1R,2R)-2-Aminocyclopentyl)-4-oxo-5-(4-phenoxyphenyl)-4,5-dihydro-3H-1-thia-3,5,8-triazaacenaphthylene-2-carboxamide]"
7,7.70,"N[C@H]1CCC[C@H]1NC(=O)c1sc2nccc3c2c1NC(=O)N3c1ccc(Oc2ccccc2)cc1 [Example 97, N-((1R,2S)-2-Aminocyclopentyl)-4-oxo-5-(4-phenoxyphenyl)-4,5-dihydro-3H-1-thia-3,5,8-triazaacenaphthylene-2-carboxamide]"
8,6.10,"N[C@@H]1CCC[C@@H]1NC(=O)c1sc2nccc3c2c1NC(=O)N3c1ccc(Oc2ccccc2)cc1 [Example 98, N-((1S,2R)-2-Aminocyclopentyl)-4-oxo-5-(4-phenoxyphenyl)-4,5-dihydro-3H-1-thia-3,5,8-triazaacenaphthylene-2-carboxamide]"
9,7.03,"Cc1cc(Oc2ccccc2)ccc1N1C(=O)Nc2c(C(=O)N[C@H]3CC[C@@H](N(C)C)CC3)sc3nccc1c23 [Example 99, N-((1S,4S)-4-(Dimethylamino)cyclohexyl)-5-(*S)-(2-methyl-4-phenoxyphenyl)-4-oxo-4,5-dihydro-3H-1-thia-3,5,8-triazaacenaphthylene-2-carboxamide]"
10,5.86,"Cc1cc(Oc2ccccc2)ccc1N1C(=O)Nc2c(C(=O)N[C@H]3CC[C@@H](N(C)C)CC3)sc3nccc1c23 [Example 100, N-((1S,4S)-4-(Dimethylamino)cyclohexyl)-5-(*R)-(2-methyl-4-phenoxyphenyl)-4-oxo-4,5-dihydro-3H-1-thia-3,5,8-triazaacenaphthylene-2-carboxamide]"
11,8.37,"C=CC(=O)N[C@H]1CCC[C@H]1NC(=O)c1sc2nccc3c2c1NC(=O)N3c1ccc(Oc2ccccc2)cc1 [Example 104, N-((1R,2S)-2-acrylamidocyclopentyl)-4-oxo-5-(4-phenoxyphenyl)-4,5-dihydro-3H-1-thia-3,5,8-triazaacenaphthylene-2-carboxamide]"
12,8.06,"C=CC(=O)N[C@H]1CCCC[C@H]1NC(=O)c1sc2nccc3c2c1NC(=O)N3c1cccc(-c2ccccc2)c1 [Example 106, 5-([1,1′-Biphenyl]-3-yl)-N-((1R,2S)-2-acrylamidocyclohexyl)-4-oxo-4,5-dihydro-3H-1-thia-3,5,8-triazaacenaphthylene-2-carboxamide]"
13,7.23,"C=CC(=O)N[C@@H]1CC[C@H](NC(=O)c2sc3nccc4c3c2NC(=O)N4c2ccc(OC(C)C)cc2C)C1 [Example 110, N-((1S,3R)-3-Acrylamidocyclopentyl)-5-(4-isopropoxy-2-methylphenyl)-4-oxo-4,5-dihydro-3H-1-thia-3,5,8-triazaacenaphthylene-2-carboxamide]"
14,8.12,"C=CC(=O)N[C@H]1CCCC[C@H]1NC(=O)c1sc2nccc3c2c1NC(=O)N3c1ccc(Oc2ccccc2)cc1 [Example 118, N-((1R,2S)-2-Acrylamidocyclohexyl)-4-oxo-5-(4-phenoxyphenyl)-4,5-dihydro-3H-1-thia-3,5,8-triazaacenaphthylene-2-carboxamide]"

# Second part, the compound before the results:
row,Compound,BTK_I_binding pIC50
1,"CCC(=O)N[C@H]1CC[C@@H](NC(=O)c2sc3nccc4c3c2NC(=O)N4c2ccc(Oc3ccccc3)cc2C)CC1 [Example 65, 5-(2-Methyl-4-phenoxyphenyl)-4-oxo-N-((1S,4S)-4-propionamidocyclohexyl)-4,5-dihydro-3H-1-thia-3,5,8-triazaacenaphthylene-2-carboxamide]",7.20
2,"Cc1cc(Oc2ccccc2)ccc1N1C(=O)Nc2c(C(=O)N[C@H]3CC[C@@H](N(C)C)CC3)sc3nccc1c23 [Example 66, N-((1S,4S)-4-(Dimethylamino)cyclohexyl)-5-(2-methyl-4-phenoxyphenyl)-4-oxo-4,5-dihydro-3H-1-thia-3,5,8-triazaacenaphthylene-2-carboxamide]",6.56
3,"C=CC(=O)N[C@@H]1CC[C@H](NC(=O)c2sc3nccc4c3c2NC(=O)N4c2ccc(Oc3ccccc3)cc2C)C1 [Example 68, N-((1S,3R)-3-acrylamidocyclopentyl)-5-(2-methyl-4-phenoxyphenyl)-4-oxo-4,5-dihydro-3H-1-thia-3,5,8-triazaacenaphthylene-2-carboxamide]",7.78
4,"CCC(=O)N[C@@H]1CC[C@H](NC(=O)c2sc3nccc4c3c2NC(=O)N4c2ccc(Oc3ccccc3)cc2C)C1 [Example 69, 5-(2-Methyl-4-phenoxyphenyl)-4-oxo-N-((1S,3R)-3-propionamidocyclopentyl)-4,5-dihydro-3H-1-thia-3,5,8-triazaacenaphthylene-2-carboxamide]",7.73
5,"CC(=O)N[C@@H]1CC[C@H](NC(=O)c2sc3nccc4c3c2NC(=O)N4c2ccc(Oc3ccccc3)cc2C)C1 [Example 70, N-((1S,3R)-3-Acetamidocyclopentyl)-5-(2-methyl-4-phenoxyphenyl)-4-oxo-4,5-dihydro-3H-1-thia-3,5,8-triazaacenaphthylene-2-carboxamide]",7.69
6,"Cc1cc(Oc2ccccc2)ccc1N1C(=O)Nc2c(C(=O)N[C@H]3CC[C@@H](NC(=O)CN(C)C)C3)sc3nccc1c23 [Example 71, N-((1S,3R)-3-(2-(Dimethylamino)acetamido)cyclopentyl)-5-(2-methyl-4-phenoxyphenyl)-4-oxo-4,5-dihydro-3H-1-thia-3,5,8-triazaacenaphthylene-2-carboxamide]",7.38
7,"CNCC(=O)N[C@@H]1CC[C@H](NC(=O)c2sc3nccc4c3c2NC(=O)N4c2ccc(Oc3ccccc3)cc2C)C1 [Example 72, 5-(2-Methyl-4-phenoxyphenyl)-N-((1S,3R)-3-(2-(methylamino)acetamido)cyclopentyl)-4-oxo-4,5-dihydro-3H-1-thia-3,5,8-triazaacenaphthylene-2-carboxamide]",7.02
8,"Cc1cc(Oc2ccccc2)ccc1N1C(=O)Nc2c(C(=O)N[C@H]3CC[C@@H](N(C)C)C3)sc3nccc1c23 [Example 73, N-((1S,3R)-3-(Dimethylamino)cyclopentyl)-5-(2-methyl-4-phenoxyphenyl)-4-oxo-4,5-dihydro-3H-1-thia-3,5,8-triazaacenaphthylene-2-carboxamide]",7.00
9,"Cc1cc(Oc2ccccc2)ccc1N1C(=O)Nc2c(C(=O)N[C@H]3CC[C@@H](O)C3)sc3nccc1c23 [Example 74, N-((1S,3R)-3-Hydroxycyclopentyl)-5-(2-methyl-4-phenoxyphenyl)-4-oxo-4,5-dihydro-3H-1-thia-3,5,8-triazaacenaphthylene-2-carboxamide]",7.07
10,"Cc1cc(Oc2ccccc2)ccc1N1C(=O)Nc2c(C(=O)N[C@H]3CC[C@@H](NC(=O)CN)C3)sc3nccc1c23 [Example 75, N-((1S,3R)-3-(2-Aminoacetamido)cyclopentyl)-5-(2-methyl-4-phenoxyphenyl)-4-oxo-4,5-dihydro-3H-1-thia-3,5,8-triazaacenaphthylene-2-carboxamide]",7.30
11,"Cc1cc(Oc2ccccc2)ccc1N1C(=O)Nc2c(C(=O)N[C@H]3CC[C@@H](N)C3)sc3nccc1c23 [Example 76, N-((1S,3R)-3-Aminocyclopentyl)-5-(2-methyl-4-phenoxyphenyl)-4-oxo-4,5-dihydro-3H-1-thia-3,5,8-triazaacenaphthylene-2-carboxamide]",6.88

# Same assay, conditions: read-out: BTK_I_binding pIC50 (converted)
row,Compound,IC50
1,"Cc1cc(Oc2ccccc2)ccc1N1C(=O)Nc2c(C(=O)N[C@H]3CC[C@H](O)CC3)sc3nccc1c23 [Example 86, N-((1R,4R)-4-Hydroxycyclohexyl)-5-(*R)-(2-methyl-4-phenoxyphenyl)-4-oxo-4,5-dihydro-3H-1-thia-3,5,8-triazaacenaphthylene-2-carboxamide]",229 nM
2,"C=CC(=O)N[C@@H]1CC[C@H](NC(=O)c2sc3nccc4c3c2NC(=O)N4c2ccc(Oc3ccccc3)cc2)C1 [Example 117, N-((1S,3R)-3-Acrylamidocyclopentyl)-4-oxo-5-(4-phenoxyphenyl)-4,5-dihydro-3H-1-thia-3,5,8-triazaacenaphthylene-2-carboxamide]",15.8 nM
